IC50 and melting point data for 25 compounds are collected here from patent US20020082420A1, “Bicyclic heterocycles, pharmaceutical compositions containing them, their use, and processes for preparing them” (priority 2000, published 2002).

For orientation: IC50 means the concentration that gives 50% inhibition. A low value points to greater potency. Broadly, the melting point is the temperature of the solid-liquid transition.

In data set [1] the target is T1, human EGF-R (Homo sapiens, UniProt P00533).
T1 construct: expressed in transfected cells; host or cells: F/L-HERc cells (murine IL-3-dependent FDC-P1 line transduced with an LXSN retroviral vector carrying human EGF-R cDNA; packaging line GP+E86)
T1 sequence (P00533 25-1210): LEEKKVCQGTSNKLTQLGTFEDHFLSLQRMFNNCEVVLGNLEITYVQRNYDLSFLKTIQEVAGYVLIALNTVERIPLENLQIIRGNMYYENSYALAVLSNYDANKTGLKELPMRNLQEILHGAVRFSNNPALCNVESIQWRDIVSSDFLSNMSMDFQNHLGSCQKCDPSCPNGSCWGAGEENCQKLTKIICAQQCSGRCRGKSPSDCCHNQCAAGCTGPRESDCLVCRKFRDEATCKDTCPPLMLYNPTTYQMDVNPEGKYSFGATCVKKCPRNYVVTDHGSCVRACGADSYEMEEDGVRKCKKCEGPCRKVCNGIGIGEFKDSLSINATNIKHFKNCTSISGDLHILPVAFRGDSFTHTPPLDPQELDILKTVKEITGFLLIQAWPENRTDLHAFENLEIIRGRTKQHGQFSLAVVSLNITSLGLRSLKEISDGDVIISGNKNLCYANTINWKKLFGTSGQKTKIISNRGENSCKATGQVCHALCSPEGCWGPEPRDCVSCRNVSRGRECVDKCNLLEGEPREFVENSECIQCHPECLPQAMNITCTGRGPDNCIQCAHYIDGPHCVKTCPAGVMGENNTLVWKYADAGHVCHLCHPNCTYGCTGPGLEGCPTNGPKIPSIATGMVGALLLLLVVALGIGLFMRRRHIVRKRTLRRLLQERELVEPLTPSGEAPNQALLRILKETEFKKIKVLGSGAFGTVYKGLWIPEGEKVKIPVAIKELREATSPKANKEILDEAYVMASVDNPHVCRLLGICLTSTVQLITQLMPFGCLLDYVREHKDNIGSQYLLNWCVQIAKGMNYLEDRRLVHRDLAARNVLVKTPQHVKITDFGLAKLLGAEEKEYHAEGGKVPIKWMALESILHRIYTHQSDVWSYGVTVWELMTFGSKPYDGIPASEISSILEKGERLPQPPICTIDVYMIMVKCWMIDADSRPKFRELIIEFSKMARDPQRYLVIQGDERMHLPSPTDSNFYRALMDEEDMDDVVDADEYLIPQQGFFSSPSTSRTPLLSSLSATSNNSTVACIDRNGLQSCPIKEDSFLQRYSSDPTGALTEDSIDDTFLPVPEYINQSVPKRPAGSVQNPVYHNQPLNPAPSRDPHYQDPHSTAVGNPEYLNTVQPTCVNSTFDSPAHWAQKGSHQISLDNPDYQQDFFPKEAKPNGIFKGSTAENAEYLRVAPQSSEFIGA
In words: Inhibition of EGF-dependent proliferation of F/L-HERc cells (Cell Titer 96 assay). In kind it is cell-based. Particulars: F/L-HERc cells (murine IL-3-dependent line expressing human EGF-R), stimulated with EGF 20 ng/ml, 48 hours at 37° C. An excerpt: A cell line of murine origin dependent on interleukin-3-(IL-3) which was genetically modified to express functional human EGF-R was used here. The proliferation of these cells known as F/L-HERc can therefore be stimulated either by murine IL-3 or by EGF (cf T. von Ruiden et al., EMBO J. 7, 2749-2756 (1988) and J. H. Pierce et al., Science 239, 628-631 (1988)).
The starting material used for the F/L-HERc cells was the cell line FDC-P1, the production of which has been described by T. M. Dexter et al., J. Exp. Med. 152. 1036-1047 (1980). Alternatively, however, other growth-factor-dependent cells may also be used (cf., e.g., J.H. Pierce et al., Science 239, 628-631 (1988); H. Shibuya et al., Cell 70, 57-67 (1992); and W. S. Alexander et al., EMBO J. 10, 3683-3691 (1991)). For expressing the human EGF-R cDNA (cf A. Ullrich et al., Nature 309, 418-425 (1984)) recombinant retroviruses were used as described by T. von Ruiden et al., EMBO J. 7, 2749-2756 (1988), except that the retroviral vector LXSN (cf A. D. Miller et al., BioTechniques 7, 980-990 (1989)) was used for the expression of the EGF-R cDNA and the line GP+E86 (cf D. Markowitz et al., J. Virol. 62, 1120-1124 (1988)) was used as the packaging cell.
The test was performed as follows:
F/L-HERc cells were cultivated in RPMI/1640 medium (BioWhittaker), supplemented with 10% fetal calf serum (FCS, Boehringer Mannheim), 2 mM glutamine (BioWhittaker), standard antibiotics and 20 ng/ml of human EGF (Promega), at 37° C. and 5% CO2. In order to investigate the inhibitory activity of the compounds according to the invention, 1.5×10^4 cells per well were cultivated in triplicate in 96-well plates in the above medium (200 μl), the cell proliferation being stimulated with either EGF (20 ng/ml) or murine IL-3. The IL-3 used was obtained from culture supernatants of the cell line X63/0 mIL-3 (cf H. Karasuyama et al., Eur. J. Immunol. 18, 97-104 (1988)). The compounds according to the invention were dissolved in 100% dimethylsulfoxide (DMSO) and added to the cultures in various dilutions, the maximum DMSO concentration being 1%. The cultures were incubated for 48 hours at 37° C.
In order to determine the inhibitory activity of the compounds according to the invention the relative cell number was measured in O.D. units using the Cell Titer 96™ Aqueous Non-Radioactive Cell Proliferation Assay (Promega). The relative cell number was calculated as a percentage of the control (F/LHERc cells without inhibitor) and the concentration of active substance which inhibits the proliferation of the cells by 50% (IC50) was derived therefrom.

The compound `CN(CC(=O)O)[C@H]1CC[C@H](Nc2ncc3ncnc(Nc4ccc(F)c(Cl)c4)c3n2)CC1` [1(3), 4-[(3-chloro-4-fluorophenyl)amino]-6-({trans-4-[N-(carboxymethyl)-N-methylamino]cyclohex-1-yl}amino)pyrimido[5,4-d]pyrimidine] yielded a melting point of 220 to 228 °C. The IC50 in data set [1] was found to be 0.32 µM.
For `O=C(O)CCN1CCC(N2CCN(c3ncc4ncnc(Nc5ccc(F)c(Cl)c5)c4n3)CC2)CC1` [1(8), 4-[(3-chloro-4-fluorophenyl)amino]-6-{4-[1-(2-carboxyethyl)piperidin-4-yl]piperazin-1-yl}pyrimido[5,4-d]pyrimidine], the melting point was 213 °C (dec.). In addition, the half-inhibitory concentration (IC50) in data set [1] turned out to be 1.45 µM.
In the case of `O=C(O)CN1CCC(CCNc2ncc3ncnc(Nc4ccc(F)c(Cl)c4)c3n2)CC1` [1(9), 4-[(3-chloro-4-fluorophenyl)amino]-6-{2-[1-(carboxymethyl)piperidin-4-yl]ethylamino}pyrimido[5,4-d]pyrimidine], the melting point was 246 to 249 °C (dec.). Besides, inhibition in data set [1] was half-maximal at 0.82 µM (IC50).
As for `O=C(O)C1CCN(CCNc2ncc3ncnc(Nc4ccc(F)c(Cl)c4)c3n2)CC1` [1(10), 4-[(3-chloro-4-fluorophenyl)amino]-6-[2-(4-carboxypiperidin-1-yl)ethylamino]pyrimido [5,4-d]pyrimidine], the melting point was 190 °C (dec.). Besides, it took 2.51 µM to reach half-maximal inhibition in data set [1] (IC50).
As to `CN(CCC(=O)O)C1CCN(c2ncc3ncnc(Nc4ccc(F)c(Cl)c4)c3n2)CC1` [1(11), 4-[(3-chloro-4-fluorophenyl)amino]-6-[4-[N-(2-carboxyethyl)-N-methylamino]piperidin-1-yl]pyrimido[5,4-d]pyrimidine], the melting point was 139 to 165 °C (dec.). Moreover, the IC50 in data set [1] was 2.32 µM.
The like results for `COC(=O)CN1CCC(Nc2ncc3ncnc(Nc4ccc(F)c(Cl)c4)c3n2)CC1` [2(1), 4-[(3-chloro-4-fluorophenyl)amino]-6-({1-[(methoxycarbonyl)methyl]piperidin-4-yl}amino)pyrimido [5,4-d]pyrimidine] were, in that order, 162 to 164 °C and 0.015 µM.
The like results for `COC(=O)CN(C)[C@H]1CC[C@H](Nc2ncc3ncnc(Nc4ccc(F)c(Cl)c4)c3n2)CC1` [2(7), 4-[(3-chloro-4-fluorophenyl)amino]-6-[(trans-4-{N-[(methoxycarbonyl)methyl]-N-methylamino}cyclohex-1-yl)amino]pyrimido[5,4-d]pyrimidine] were, in that order, 131 to 134 °C and 0.06 µM.
For `CCOC(=O)CN1CCN(c2ncc3ncnc(Nc4ccc(F)c(Cl)c4)c3n2)CC1` [2(10), 4-[(3-chloro-4-fluorophenyl)amino]-6-[4-[(ethoxycarbonyl)methyl]piperazin-1-yl]pyrimido[5,4-d]pyrimidine], in that order: 179 to 182 °C and 2.04 µM.
`CCOC(=O)CCN1CCC(N2CCN(c3ncc4ncnc(Nc5ccc(F)c(Cl)c5)c4n3)CC2)CC1` [2(12), 4-[(3-chloro-4-fluorophenyl)amino]-6-(4-{1-[2-(ethoxycarbonyl)ethyl]piperidin-4-yl}piperazin-1-yl)pyrimido[5,4-d]pyrimidine] showed an IC50 in data set [1] of 0.81 µM.
The compound `CCOC(=O)CN1CCC(CCNc2ncc3ncnc(Nc4ccc(F)c(Cl)c4)c3n2)CC1` [2(13), 4-[(3-chloro-4-fluorophenyl)amino]-6-(2-{1-[(ethoxycarbonyl)methyl]piperidin-4-yl}ethylamino)pyrimido[5,4-d]pyrimidine] came in with a melting point of 128 to 130 °C. Further, in data set [1], half-maximal inhibition (IC50) required 1.03 µM.
For `CCOC(=O)C1CCN(CCNc2ncc3ncnc(Nc4ccc(F)c(Cl)c4)c3n2)CC1` [2(14), 4-[(3-chloro-4-fluorophenyl)amino]-6-{2-[4-(ethoxycarbonyl)piperidin-1-yl]ethylamino}pyrimido[5,4-d]pyrimidine], in that order: 137 to 139 °C and 1.15 µM.
As for `COC(=O)CCN(C)C1CCN(c2ncc3ncnc(Nc4ccc(F)c(Cl)c4)c3n2)CC1` [2(15), 4-[(3-chloro-4-fluorophenyl)amino]-6-(4-{N-[2-(methoxycarbonyl)ethyl]-N-methylamino}piperidin-1-yl)pyrimido[5,4-d]pyrimidine], half-maximal inhibition in data set [1] (IC50) was put at 1.76 µM.
`COC(=O)CN1CCC(Nc2ncc3ncnc(Nc4cccc(Br)c4)c3n2)CC1` [2(17)]: the melting point worked out at 144 °C. The compound also had a concentration for half-maximal inhibition (IC50) in data set [1] of 0.03 µM.
On to `COC(=O)CN(C)CC1CCN(c2ncc3ncnc(Nc4ccc(F)c(Cl)c4)c3n2)CC1` [2(19), 4-[(3-chloro-4-fluorophenyl)amino]-6-[4-({N-[(methoxycarbonyl)methyl]-N-methylamino}methyl)piperidin-1-yl]pyrimido[5,4-d]pyrimidine], for which, in data set [1], the IC50 was 0.129 µM.
`COC(=O)CN1CCC(Nc2ncc3ncnc(Nc4cccc(Cl)c4)c3n2)CC1` [2(23), 4-[(3-chlorophenyl)amino]-6-({1-[(methoxycarbonyl)methyl]piperidin-4-yl}amino)pyrimido[5,4-d]pyrimidine] returned a melting point of 129 °C. This compound displayed an IC50 in data set [1] of 0.025 µM.
`COC(=O)CN1CCC(Nc2ncc3ncnc(Nc4cccc(C)c4)c3n2)CC1` [2(24), 4-[(3-methylphenyl)amino]-6-({1-[(methoxycarbonyl)methyl]piperidin-4-yl}amino)pyrimido[5,4-d]pyrimidine] had a melting point of 164 °C. For the same compound, the IC50 in data set [1] is 0.073 µM.
In the case of `COC(=O)CN1CCC(Nc2ncc3ncnc(Nc4cc(Cl)c(N)c(Cl)c4)c3n2)CC1` [2(26), 4-[(4-amino-3,5-dichlorophenyl)amino]-6-({1-[(methoxycarbonyl)methyl]piperidin-4-yl}amino)pyrimido[5,4-d]pyrimidine], the melting point was found to be 218 °C. This compound came in with an IC50 in data set [1] of 0.021 µM.
For `CCOC(=O)CN(CC(=O)OCC)[C@H]1CC[C@H](Nc2ncc3ncnc(Nc4ccc(F)c(Cl)c4)c3n2)CC1` [3(4), 4-[(3-chloro-4-fluorophenyl)amino]-6-[(trans-4-{N,N-bis-[(ethoxycarbonyl)methyl]amino}cyclohex-1-yl)amino]pyrimido[5,4-d]pyrimidine], the IC50 in data set [1] turned out to be 0.058 µM.
On the same count and under the same terms, to `COC(=O)CN(CC(=O)OC)[C@H]1CC[C@H](Nc2ncc3ncnc(Nc4ccc(F)c(Cl)c4)c3n2)CC1` [3(5), 4-[(3-chloro-4-fluorophenyl)amino]-6-[(trans-4-{N,N-bis-[(methoxycarbonyl)methyl]amino}cyclohex-1-yl)amino]pyrimido [5,4-d]pyrimidine] belongs 0.02 µM; to `COC(=O)CN[C@H]1CC[C@H](Nc2ncc3ncnc(Nc4ccc(F)c(Cl)c4)c3n2)CC1` [3(10), 4-[(3-chloro-4-fluorophenyl)amino]-6-[(trans-4-{[(methoxycarbonyl)methyl]amino}cyclohex-1-yl)amino]pyrimido[5,4-d]pyrimidine], 0.016 µM.
As for `COC(=O)C(C(=O)OC)N1CCC(Nc2ncc3ncnc(Nc4cccc(Br)c4)c3n2)CC1` [3(16)], in data set [1], 0.02 µM corresponded to half-maximal inhibition (IC50).
`COC(=O)CN1CCCC(Nc2ncc3ncnc(Nc4cccc(Br)c4)c3n2)C1` (stereo not drawn) [3(17), 4-[(3-bromophenyl)amino]-6-({1-[(methoxycarbonyl)methyl]piperidin-3-yl}amino)pyrimido[5,4-d]pyrimidine] had a concentration for half-maximal inhibition (IC50) in data set [1] of 0.017 µM.
In the case of `COC(=O)C(C(=O)OC)N1CCC(Nc2ncc3ncnc(Nc4ccc(F)c(Cl)c4)c3n2)CC1` [3(18)], the IC50 in data set [1] was 0.04 µM. This IC50 is about 2.4-fold higher than that of the compound before.
In turn, `CCOP(=O)(CN1CCC(Nc2ncc3ncnc(Nc4cccc(Br)c4)c3n2)CC1)OCC` [4(1), 4-[(3-bromophenyl)amino]-6-({1-[(diethoxyphosphoryl)methyl]piperidin-4-yl}amino)pyrimido[5,4-d]pyrimidine] yielded a half-maximal inhibitory concentration (IC50) in data set [1] of 0.04 µM.
Same read-out and setting: the figure for `CCOP(C)(=O)CN1CCC(Nc2ncc3ncnc(Nc4cccc(Br)c4)c3n2)CC1` (stereo not drawn) [4(2), 4-[(3-bromophenyl)amino]-6-[(1-{[(ethoxy)(methyl)phosphoryl]methyl}piperidin-4-yl)amino]pyrimido [5,4-d]pyrimidine] is 0.04 µM.
